# Tests used:
# [1] = system: wheat; test: Test A pre-/postemergence greenhouse test; format: in vivo, Triticum aestivum; settings: for Plant response rating, Wheat: 0 to 100 scale where 0 is no effect and 100 is complete control; for Wheat plant response rating: 0 to 100 scale
# Method in brief: (§1)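 Sowing in loam/sand; same-day pre (directed soil spray) and post (foliar, 1–2 leaf, 2–10 cm) treatment with surfactant-containing non-phytotoxic solvent formulation; ~10 days in greenhouse; eye-scored injury against untreated plants.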
# [2] = system: johnsongrass; test: Test C pre-/postemergence test; format: in vivo, Sorghum halepense
# Method in brief: (§2)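 Compounds in a non-phytotoxic solvent with surfactant applied preemergence to seeded pots and, at the same time, postemergence to plants 2–18 cm tall (1- to 4-leaf stage). Paddy tests: pots flooded to 3 cm, compound applied into the water, depth held throughout.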
# [3] = system: velvetleaf; test: Test C pre-/postemergence test; format: in vivo, Abutilon theophrasti
# Method in brief: as §2
# [4] = system: eastern black nightshade; test: Test C pre-/postemergence test; format: in vivo, Solanum ptycanthum
# Method in brief: as §2
# [5] = system: duck salad; test: Test C flooded paddy test; format: in vivo, Heteranthera limosa; settings: Flood
# Method in brief: (§3)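 Pots were flooded to 3 cm above the soil surface at treatment, compound applied directly to the paddy water, and that depth held throughout. Plants were kept in a greenhouse for 13 to 15 days, then visually rated against untreated controls.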
# [6] = system: giant foxtail; test: Test C pre-/postemergence test; format: in vivo, Setaria faberii
# Method in brief: as §2
# [7] = system: catchweed bedstraw; test: Test C pre-/postemergence test; format: in vivo, Galium aparine
# Method in brief: as §2
# [8] = system: morningglory; test: Test C pre-/postemergence test; format: in vivo, Ipomoea coccinea
# Method in brief: as §2
# [9] = system: wheat; test: Test C pre-/postemergence test; format: in vivo, Triticum aestivum
# Method in brief: as §2
# [10] = system: rice; test: Test C flooded paddy test; format: in vivo, Oryza sativa; settings: Flood
# Method in brief: as §3
# [11] = system: corn; test: Test C pre-/postemergence test; format: in vivo, Zea mays
# Method in brief: as §2
# [12] = system: redroot pigweed; test: Test A pre-/postemergence greenhouse test; format: in vivo, Amaranthus retroflexus; settings: for Plant response rating, Pigweed: 0 to 100 scale where 0 is no effect and 100 is complete control; for Pigweed plant response rating: 0 to 100 scale
# Method in brief: as §1
# [13] = system: downy brome; test: Test C pre-/postemergence test; format: in vivo, Bromus tectorum
# Method in brief: as §2
# [14] = system: wild oat; test: Test C pre-/postemergence test; format: in vivo, Avena fatua
# Method in brief: as §2
# [15] = system: velvetleaf; test: Test A pre-/postemergence greenhouse test; format: in vivo, Abutilon theophrasti; settings: for Plant response rating, Velvetleaf: 0 to 100 scale where 0 is no effect and 100 is complete control; for Velvetleaf plant response rating: 0 to 100 scale
# Method in brief: as §1
# [16] = system: yellow nutsedge; test: Test C pre-/postemergence test; format: in vivo, Cyperus esculentus
# Method in brief: as §2
# [17] = system: woolly cupgrass; test: Test C pre-/postemergence test; format: in vivo, Eriochloa villosa
# Method in brief: as §2
# [18] = Postemergence, 500 g ai/ha, 0 is no effect, 100 is complete control
# [19] = Preemergence, 125 g ai/ha, 0 no effect, 100 complete control
# [20] = 62 g ai/ha, Preemergence, scale 0 to 100
# [21] = 125 g ai/ha, preemergence, scale 0 (no effect) to 100 (complete control)
# [22] = Preemergence, 31 g ai/ha, scale 0 to 100 (0 no effect, 100 complete control)
# [23] = preemergence, 250 g ai/ha, scale 0 (no effect) to 100 (complete control)
# [24] = 31 g ai/ha, scale 0 to 100 (0 no effect, 100 complete control)
# [25] = 62 g ai/ha, scale 0 to 100, 0 no effect, 100 complete control, 13 to 15 days
# [26] = 125 g ai/ha, scale 0 to 100, 0 no effect, 100 complete control, 13 to 15 days
# [27] = 250 g ai/ha, scale 0 to 100, 0 no effect, 100 complete control, 13 to 15 days
smiles,measurement,setting,value
Cn1nc(C(F)(F)F)c(C[S+]([O-])c2ccc(F)c[n+]2[O-])c1Cl (stereo not drawn) [Compound 54],"Plant response rating, Wheat","[1]; Postemergence, 125 g ai/ha",30
same,Wheat plant response rating,[1]; [18],50
same,Wheat plant response rating,[1]; [19],10
same,"Plant response rating, Wheat","[1]; Preemergence, 500 g ai/ha",70
same,Johnsongrass plant response rating,[2]; [20],95
same,Johnsongrass plant response rating,[2]; [21],100
same,"Plant response rating, Johnsongrass",[2]; [22],90
same,Johnsongrass plant response rating,[2]; [23],100
same,Velvetleaf plant response rating,[3]; [20],0
same,Velvetleaf plant response rating,[3]; [21],5
same,"Plant response rating, Velvetleaf",[3]; [22],0
same,Velvetleaf plant response rating,[3]; [23],85
same,Nightshade plant response rating,[4]; [20],50
same,Nightshade plant response rating,[4]; [21],85
same,"Plant response rating, Nightshade",[4]; [22],0
same,Nightshade plant response rating,[4]; [23],85
same,"Plant response rating, Ducksalad",[5]; [24],0
same,"Plant response rating, Ducksalad",[5]; [25],0
same,"Plant response rating, Ducksalad",[5]; [26],0
same,"Plant response rating, Ducksalad",[5]; [27],85
same,"Foxtail, Giant plant response rating",[6]; [20],98
same,"Foxtail, Giant plant response rating",[6]; [21],100
same,"Plant response rating, Foxtail, Giant",[6]; [22],85
same,"Foxtail, Giant plant response rating",[6]; [23],100
same,Galium plant response rating,[7]; [20],0
same,Galium plant response rating,[7]; [21],85
same,"Plant response rating, Galium",[7]; [22],0
same,Galium plant response rating,[7]; [23],85
same,Morningglory plant response rating,[8]; [20],100
same,Morningglory plant response rating,[8]; [21],100
same,"Plant response rating, Morningglory",[8]; [22],100
same,Morningglory plant response rating,[8]; [23],100
same,Wheat plant response rating,[9]; [21],40
same,"Plant response rating, Wheat",[9]; [22],0
same,"Plant response rating, Rice",[10]; [24],0
same,"Plant response rating, Rice",[10]; [25],0
same,"Plant response rating, Rice",[10]; [26],15
same,"Plant response rating, Rice",[10]; [27],40
same,Corn plant response rating,[11]; [20],80
same,Corn plant response rating,[11]; [21],85
same,"Plant response rating, Corn",[11]; [22],55
same,Corn plant response rating,[11]; [23],98
same,"Plant response rating, Pigweed","[12]; Postemergence, 125 g ai/ha",40
same,Pigweed plant response rating,[12]; [18],60
same,Pigweed plant response rating,[12]; [19],90
same,"Plant response rating, Pigweed","[12]; Preemergence, 500 g ai/ha",100
same,"Bromegrass, Downy plant response rating",[13]; [20],0
same,"Bromegrass, Downy plant response rating",[13]; [21],10
same,"Plant response rating, Bromegrass, Downy",[13]; [22],0
same,"Bromegrass, Downy plant response rating",[13]; [23],60
same,"Oat, Wild plant response rating",[14]; [20],10
same,"Oat, Wild plant response rating",[14]; [21],30
same,"Plant response rating, Oat, Wild",[14]; [22],0
same,"Oat, Wild plant response rating",[14]; [23],40
same,"Plant response rating, Velvetleaf","[15]; Postemergence, 125 g ai/ha",10
same,Velvetleaf plant response rating,[15]; [18],70
same,Velvetleaf plant response rating,[15]; [19],30
same,"Plant response rating, Velvetleaf","[15]; Preemergence, 500 g ai/ha",70
same,"Nutsedge, Yellow plant response rating",[16]; [20],65
same,"Nutsedge, Yellow plant response rating",[16]; [21],100
same,"Plant response rating, Nutsedge, Yellow",[16]; [22],0
same,"Nutsedge, Yellow plant response rating",[16]; [23],100
same,"Cupgrass, Woolly plant response rating",[17]; [20],85
same,"Cupgrass, Woolly plant response rating",[17]; [21],95
same,"Plant response rating, Cupgrass, Woolly",[17]; [22],85
same,"Cupgrass, Woolly plant response rating",[17]; [23],98

# Reference: patent US20100298141A1, “SUBSTITUTED PYRIDINE N-OXIDE HERBICIDES” (E. I. DU PONT DE NEMOURS AND COMPANY, priority 2007, published 2010)
